Values quoted from earlier work, collected in patent US20040089561A1, “Method and package for storing a pressurized container containing a drug” (priority 1999, published 2004).

Details: water in the propellant

SMILES | maximum water solubility
FC(F)(Cl)Cl [CFC 12] | about 130 ppm
FC(F)(Cl)C(F)(F)Cl [CFC 114] | about 130 ppm
FCC(F)(F)F [HFC 134a] | about 2200 ppm
